Source: US20020072535A1 (priority 1997, published 2002)

Tests used:
Format in all cases: in vivo
Phytophthora infestans = assay: whole plant or invertebrate; conditions: in Solanum lycopersicum, 72 h, read-out: Efficiacy in %
Fusarium nivale = Fusarium nivale test (triticale)/seed treatment; conditions: triticale seed dressing, about 3 weeks after sowing
Protocol: Fusarium nivale test (triticale)/seed treatment
(§1) The active compounds are applied as dry seed dressings. These are prepared by extending the respective active compound or the active compound combination with ground minerals to give a finely pulverulent mixture which ensures uniform distribution on the seed surface.
(§2) To dress the seed, the infected seed together with the seed dressing is shaken for 3 minutes in a sealed glass flask.
2×100 corns of triticale are sown at a depth of 1 cm in standard soil and cultivated in a greenhouse at a temperature of about 10° C. and a relative atmospheric humidity of about 95% in seed trays which receive a light regimen of 15 hours per day.
About 3 weeks after sowing, the plants are evaluated for symptoms. 0% means an efficacy which corresponds to that of the control, while an efficacy of 100% means that no infection is observed.

Pythium sp. = Pythium sp. test (pea)/seed treatment; conditions: pea seed dressing, evaluation after 14 days
Protocol: Pythium sp. test (pea)/seed treatment
as §1, §2
2×50 corns of seed are sown at a depth of 2 cm in compost soil naturally infected with phythium sp. and cultivated in a greenhouse at a temperature of about 20° C. in seed trays which receive a light regimen of 15 hours per day.
Evaluation is carried out after 14 days. 0% means an efficacy which corresponds to that of the control, while an efficacy of 100% means that no infection is observed.

Row | Compound | pest or weed control at 0.2 g/ha (Phytophthora infestans) [%] | further results
1 | Cc1noc(C)c1S(=O)(=O)n1c(Cl)nc2cc3c(cc21)OC(F)(F)O3 [(Ib), 1-(3,5-dimethyl-isoxazole-4-sulphonyl)-2-chloro-6,6-difluoro-[1,3]-dioxolo-[4,5f]-benzimidazole] | 37 | pest or weed control at 1 g/ha (Phytophthora infestans): 76%; Efficacy in % (Fusarium nivale; 100 mg/kg of seed): 0%; Efficacy in % (Fusarium nivale; 500 mg/kg of seed): 0%; Efficacy in % (Pythium sp.; 1000 mg/kg of seed): 4%
2 | O=C1c2ccccc2C(=O)N1SC(Cl)(Cl)Cl |  | pest or weed control at 2 g/ha (Phytophthora infestans): 12%
3 | CC(C)(C)C(O)C(Oc1ccc(Cl)cc1)n1cncn1 (centres unmarked) | 0 | 
4 | Cc1noc(C)c1S(=O)(=O)n1c(Br)nc2cc3c(cc21)OC(F)(F)O3 [(Ia), 1-(3,5-dimethyl-isoxazole-4-sulphonyl)-2-bromo6,6-difluoro[1,3]-dioxolo-[4,5f]-benzimidazole] | 14 | pest or weed control at 1 g/ha (Phytophthora infestans): 65%; Efficacy in % (Fusarium nivale; 100 mg/kg of seed): 26%; Efficacy in % (Pythium sp.; 500 mg/kg of seed): 1%
5 | CCC(C)(NC(=O)c1cc(Cl)c(C)c(Cl)c1)C(=O)CCl (centres unmarked) | 0 | 
6 | CC(C)(C)C(O)C(Oc1ccc(-c2ccccc2)cc1)n1cncn1 (centres unmarked) | 24 | 
7 | CC1(C(=O)Nc2ccc(O)c(Cl)c2Cl)CCCCC1 |  | pest or weed control at 5 g/ha (Phytophthora infestans): 0%
8 | COc1ccc(C(=CC(=O)N2CCOCC2)c2ccc(Cl)cc2)cc1OC | 0 | 
9 | Cc1cc(C)nc(Nc2ccccc2)n1 |  | pest or weed control at 1 g/ha (Phytophthora infestans): 0%
10 | COCC(=O)N(c1c(C)cccc1C)C(C)C(=O)OC (centres unmarked) | 0 | 
11 | O=[N+]([O-])/N=C1\NCCN1Cc1ccc(Cl)nc1 [drawing 67] | 6 | 
12 | CC(C)(C)C(=O)C(Oc1ccc(Cl)cc1)n1cncn1 (centres unmarked) | 0 | 
13 | CC(C)(C)C(O)(CCc1ccc(Cl)cc1)Cn1cncn1 (centres unmarked) | 0 | 
14 | Cc1cc(C2CC2)nc(Nc2ccccc2)n1 |  | pest or weed control at 1 g/ha (Phytophthora infestans): 0%
15 | CO/N=C(\C1=NOCCO1)c1ccccc1Oc1ncnc(Oc2ccccc2Cl)c1F |  | pest or weed control at 1 g/ha (Phytophthora infestans): 27%
16 | OC(Cc1ccccc1Cl)(Cn1nc[nH]c1=S)C1(Cl)CC1 (centres unmarked) | 0 | 
17 | Cc1ccc(C(C)NC(=O)C(NC(=O)OC(C)C)C(C)C)cc1 (centres unmarked) | 0 | pest or weed control at 1 g/ha (Phytophthora infestans): 0%
18 | O=[N+]([O-])/N=C1\NCCN1Cc1ccc(Cl)nc1 [(XXII), 1-[(6-chloro-3-pyridinyl)-methyl]-N-nitro-2-imidazolidineimine] |  | Efficacy in % (Fusarium nivale; 100 mg/kg of seed): 0%
19 | CO/C=C(/C(=O)OC)c1ccccc1COc1ccccc1C | 0 | 
20 | CO/C=C(/C(=O)OC)c1ccccc1Oc1cc(Oc2ccccc2C#N)ncn1 | 51 | 
21 | CCNC(=O)NC(=O)C(C#N)=NOC | 0 | 
